d = 2'-deoxy (DNA); r = 2'-OH (RNA)

Type in all cases: cell-based, human
Series [1] concerns lung cancer cell line A549. Briefly: Cell viability by CCK-8 method, A549. The conditions noted are these: A549, 10 nM, 72 h, FIG. 7B. How it is done:
(§1) 8 LHPP promoter-targeting saRNAs were individually transfected into cancer cells at 10 nM for 72 h. In FIG. 7A, the expression level of LHPP mRNA was analyzed by RT-qPCR. In FIG. 7B, cell viability in the saRNA treatment group was evaluated by the CCK-8 method and recorded as a percentage relative to the viability of cells in a control (Mock) treatment group.
(§2) The cell viability was detected by the following CCK-8 method: the cCells were plated into a 96-well plate at 3-5×10^3 cells/well, cultured overnight, and transfected with the oligonucleotide duplexes. After 72 hour of transfection, 10 uL of CCK-8 solution (Dojindo Molecular Technologies) was added into each well. After 1 hour of incubation at 37° C., a microplate reader was used to measure absorbances at 450 nm.
(§3) In order to further evaluate the effect of LHPP saRNAs in inducing the mRNA expression of the LHPP gene and inhibiting the proliferation of cancer cells, eight screened saRNAs (RAG7-132, RAG7-133, RAG7-139, RAG7-177, RAG7-178, RAG7-694, RAG7-707 and RAG7-892) each were transfected into the liver cancer cell lines Huh7 (Medical Cell Resource Center, Tohoku University, Japan), HepG2 (ATCC), Hep3B (ATCC), Li-7 (Medical Cell Resource Center, Tohoku University, Japan) and SK-HEP-1 (ATCC), a lung cancer cell line A549 (ATCC), a bladder cancer cell line T24 (ATCC), a prostatic cancer cell line PC3 (ATCC), and a glioma cell line U87MG (ATCC). The mRNA expression and cell viability of the transfected cells were measured.
Background: Tetrazolium dyes change colour on reduction, which living cells bring about.

The test system of series [2] is glioma cell line U87MG. The experiment in a line: Cell viability by CCK-8 method, U87MG. The conditions noted are these: 10 nM, 72 h, FIG. 7B. How it is done:
as §1, §2, §3

The test system of series [3] is LHPP gene. Briefly: LHPP mRNA expression by RT-qPCR in cancer cell lines. The following applies: 72 h. How it is done:
(§4) 8 LHPP promoter-targeting saRNAs were individually transfected into liver cancer cells at 10 nM for 72 h. In FIG. 6A, the expression level of LHPP mRNA was analyzed by RT-qPCR. In FIG. 6B, cell viability in the saRNA treatment group was evaluated by the CCK-8 method and recorded as a percentage relative to the viability of cells in a control (Mock) treatment group.
as §1, §3
For orientation: Real-time PCR tracks product formation cycle by cycle.

The test system of series [4] is bladder cancer cell line T24. The experiment in a line: Cell viability by CCK-8 method, T24. The following applies: T24, 10 nM, 72 h, FIG. 7B. The protocol:
as §1, §2, §3

The test system of series [5] is LHPP gene. The experiment in a line: High-throughput screening of saRNAs targeting LHPP promoter: LHPP mRNA by one-step RT-qPCR in Huh7 cells. The following applies: 10 nM saRNA, 72 hours, relative to control (Mock). The method in brief: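 Huh7 cells were transfected with 10 nM saRNA using RNAiMax and lysed 72 h later. LHPP mRNA was quantified by one-step RT-qPCR in triplicate wells. Expression was normalised to HPRT1 and TBP and given as fold change versus mock-transfected cells.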

Series [6] relates to prostatic cancer cell line PC3. The experiment in a line: Cell viability by CCK-8 method, PC3. The conditions noted are these: PC3, 10 nM, 72 h, FIG. 7B. How it is done: as §1, §2, §3
Series [7] relates to SK-HEP-1 cells. Briefly: Cell viability by CCK-8 method, SK-HEP-1. The conditions noted are these: SK-HEP-1, 10 nM, 72 h, FIG. 6B. How it is done:
as §4
(§5) The cell viability was detected by the following CCK-8 method: the cCells were plated into a 96-well plate at 3-5×10^3 cells/well, cultured overnight, and transfected with the oligonucleotide duplexes. After 72 hour of transfection, 10 uL of CCK-8 solution (Dojindo Molecular Technologies) was added into each well. After 1 hour of incubation at 37° C., a microplate reader was used to measure absorbances at 450 nm. […]

The subject of series [8] is Huh7 cells. Briefly: Cell viability by CCK-8 method, Huh7. The conditions noted are these: Huh7, 10 nM, 72 h, FIG. 6B. How it is done:
The 290 saRNAs targeting the LHPP promoter were individually transfected into Huh7 cells, and 72 hour later, one-step RT-qPCR was employed to analyze the expression levels of LHPP mRNA and cell viability was detected by the CCK-8 method.
as §2, §3

Series [9] relates to Hep3B cells. The experiment in a line: Cell viability by CCK-8 method, Hep3B. The following applies: 10 nM, 72 h, FIG. 6B. The protocol: as §4, §5
The subject of series [10] is HepG2 cells. The experiment in a line: Cell viability by CCK-8 method, HepG2. The following applies: HepG2, 10 nM, 72 h, FIG. 6B. The protocol:
as §4, §5

With “RAG7-177: saRNA duplex; sense AUUUGCCUUUGACCUUUCUTT (SEQ ID NO: 6), antisense AGAAAGGUCAAAGGCAAAUTT (SEQ ID NO: 170) (sugars from the 5' end r19 d2, backbone not given here)”, the “cell proliferation (cell viability, CCK-8)” value (shortened to “cell proliferation”) in [1], in series [2] and in series [4] was “inhibited cell proliferation” each time. Also, the “expression of LHPP gene (mRNA)” value in series [3] (A549, 10 nM, FIG. 7A) is “induced the expression of LHPP gene to different degrees”; in series [3] (T24, 10 nM, FIG. 7A), “induced the expression of LHPP gene to different degrees”; in series [3] (U87MG, 10 nM, FIG. 7A) it was “induced the expression of LHPP gene to different degrees”. Also, the “Fold of changes in relative LHPP mRNA expression level” value in series [5] amounted to 1.74 fold. For the same substance, the “Fold of changes in relative LHPP mRNA expression level (log2)” value in [5] was 0.80 log2.
Regarding “RAG7-694: saRNA duplex; sense AGGUCCUAUGCAUCCUCAUTT (SEQ ID NO: 3), antisense AUGAGGAUGCAUAGGACCUTT (SEQ ID NO: 167) (sugars from the 5' end r19 d2, backbone not given here)”, the “cell proliferation” value in [1], in series [6], in series [4], in series [7], in series [8] and in series [9] was “inhibited cell proliferation” throughout. For the same substance, in series [10], the “cell proliferation” value is “inhibited cell proliferation”. Besides, the “expression of LHPP gene (mRNA)” value in [3] (A549, 10 nM, FIG. 7A) was “induced the expression of LHPP gene to different degrees”; in series [3] (Hep3B, 10 nM, FIG. 6A) it was “induced the expression of LHPP gene to different degrees”; in series [3] (HepG2, 10 nM, FIG. 6A), “induced the expression of LHPP gene to different degrees”; in [3] (Huh7, 10 nM, FIG. 6A), “induced the expression of LHPP gene to different degrees”; in series [3] (PC3, 10 nM, FIG. 7A), “induced the expression of LHPP gene to different degrees”; in [3] (SK-HEP-1, 10 nM, FIG. 6A) it was “induced the expression of LHPP gene to different degrees”. In addition, in [3] (T24, 10 nM, FIG. 7A), the “expression of LHPP gene (mRNA)” value is reported as “induced the expression of LHPP gene to different degrees”. Also, the “Fold of changes in relative LHPP mRNA expression level” value in [5] is given as 1.88 fold. In [5], the “Fold of changes in relative LHPP mRNA expression level (log2)” value is given as 0.91 log2.
“RAG7-178: saRNA duplex; sense AAUUUGCCUUUGACCUUUCTT (SEQ ID NO: 5), antisense GAAAGGUCAAAGGCAAAUUTT (SEQ ID NO: 169) (sugars from the 5' end r19 d2, backbone not given here)”: the “cell proliferation” value in [1], in series [2] and in [6] was “inhibited cell proliferation” each time. The “expression of LHPP gene (mRNA)” value is on record as “induced the expression of LHPP gene to different degrees” in [3] (A549, 10 nM, FIG. 7A); “induced the expression of LHPP gene to different degrees” in series [3] (PC3, 10 nM, FIG. 7A); “induced the expression of LHPP gene to different degrees” in series [3] (U87MG, 10 nM, FIG. 7A). For the same substance, the “Fold of changes in relative LHPP mRNA expression level” value in series [5] turned out to be 1.76 fold. For the same substance, the “Fold of changes in relative LHPP mRNA expression level (log2)” value in series [5] amounted to 0.82 log2.
As for “RAG7-35: saRNA duplex; sense GGUUUGCACCCGGUCUUCUTT (SEQ ID NO: 24), antisense AGAAGACCGGGUGCAAACCTT (SEQ ID NO: 188) (sugars from the 5' end r19 d2, backbone not given here)”, in series [5], the “Fold of changes in relative LHPP mRNA expression level” value stood at 1.53 fold and the “Fold of changes in relative LHPP mRNA expression level (log2)” value worked out at 0.61 log2.
Consider “RAG7-741: saRNA duplex; sense CCUCCUGGGUUUAACGCAUTT (SEQ ID NO: 95), antisense AUGCGUUAAACCCAGGAGGTT (SEQ ID NO: 259) (sugars from the 5' end r19 d2, backbone not given here)”, for which, in series [5], the “Fold of changes in relative LHPP mRNA expression level” value was found to be 1.23 fold and the “Fold of changes in relative LHPP mRNA expression level (log2)” value turned out to be 0.30 log2.
As for “RAG7-97: saRNA duplex; sense CGAAAAGGACACCGUUUCATT (SEQ ID NO: 71), antisense UGAAACGGUGUCCUUUUCGTT (SEQ ID NO: 235) (sugars from the 5' end r19 d2, backbone not given here)”, in series [5], the “Fold of changes in relative LHPP mRNA expression level” value came out at 1.29 fold and the “Fold of changes in relative LHPP mRNA expression level (log2)” value amounted to 0.37 log2.
The like results for “RAG7-104: saRNA duplex; sense AAGCUUCCGAAAAGGACACTT (SEQ ID NO: 43), antisense GUGUCCUUUUCGGAAGCUUTT (SEQ ID NO: 207) (sugars from the 5' end r19 d2, backbone not given here)” were, in that order, 1.41 fold and 0.50 log2.
On the same counts, the results for “RAG7-911: saRNA duplex; sense CUUUGAAAGCUCAAAGCUATT (SEQ ID NO: 160), antisense UAGCUUUGAGCUUUCAAAGTT (SEQ ID NO: 324) (sugars from the 5' end r19 d2, backbone not given here)” are 1.11 fold and 0.15 log2.
For the substance “RAG7-829: saRNA duplex; sense UUGAGGAAACUCCUCCCUUTT (SEQ ID NO: 29), antisense AAGGGAGGAGUUUCCUCAATT (SEQ ID NO: 193) (sugars from the 5' end r19 d2, backbone not given here)”, in [5], the “Fold of changes in relative LHPP mRNA expression level” value is 1.50 fold and the “Fold of changes in relative LHPP mRNA expression level (log2)” value turned out to be 0.59 log2.
On the same counts, the results for “RAG7-917: saRNA duplex; sense UCUCUUCUUUGAAAGCUCATT (SEQ ID NO: 64), antisense UGAGCUUUCAAAGAAGAGATT (SEQ ID NO: 228) (sugars from the 5' end r19 d2, backbone not given here)” are 1.32 fold and 0.40 log2.

For the origin of these results see patent US20220096516A1, “OLIGONUCLEOTIDE MOLECULE AND APPLICATION THEREOF IN TUMOR THERAPY” (Ractigen Therapeutics, priority 2019, published 2022).
